Ends that are not written are not given here.
Assays:
HelaP4 cells = assay type: cell-based
Experimental: We therefore analyzed this peptide further, with respect to functional interference with HIV-1 replication. After fusion to a protein transduction domain, different amounts of the DDX3-INS1 peptide or a control peptide were transduced into HelaP4 cells 24 hours after infection with HIV-1Lai. HIV-1 infection was quantified 48–72 hours after infection by titering released HIV-1 in culture supernatants on Tzm-bl cells based on measuring the luciferase activity in the cell lysates. […] The DDX3-INS1 peptide was not toxic for the cells in the concentration range used (data not shown). Thus, binding of the peptide ligand to the DDX3 insertion, interferes with HIV-1 replication further providing evidence of an important functional role of the DDX3 insertion not only for enzymatic functions, but also for HIV-1 replication.

[1] = system: partially dsDNA substrates (18/38-mer); test: DNA helicase assay; assay type: biochemical
Excerpt: (§1) The helicase activity of DDX3wt and mutant forms was monitored by measuring the conversion of a double stranded (ds) DNA or RNA (labelled at the 5′-end of one strand with a 6-FAM fluorescent group) into single stranded (ss) nucleic acid. For the RNA helicase assay, a 18/36mer ds RNA oligonucleotide with both 3′ and 5′-protruding ss ends was used. For the DNA helicase assay, three different dsDNA substrates were used, all of them composed of the same 18mer oligonucleotide 5′-FAM labelled and three different 38 mer oligonucleotides with the sequence complementary to the 18 mer at different positions. Annealing of the 18 mer to each of the 38 mer generated the different DNA substrates shown in Fig. 5 A. A final concentration of 20 nM RNA or DNA substrate was used in the experiments, unless otherwise stated. The amounts of the different DDX3 proteins are indicated in the respective Figures.
(§2) Reactions were performed in 50 mM TrisHCl pH 7.5, 1 mM DTT, 0.2 mg/ml BSA, 5% glycerol and 1 mM ATP, 10 mM MgCl2 at 37°C degrees for 10′ and stopped by adding EDTA 50 mM pH 8. Products were separated on a native 7% PAGE […] at 5 W in TBE buffer with 0.1% SDS at 4°C for 2 hours for RNA substrates, 4 hours for DNA substrates. Substrates and products were quantified by laser scanning densitometry (Thyphoon-TRIO, GE Healthcare). For trap-assays, the enzyme and the RNA substrate were incubated on ice for 4 min, in the absence of ATP. Reactions were started by addition of ATP and a 50-fold molar excess (1 µM) of r(A)40 trap RNA oligonucleotide, followed by incubation at 37°C for the indicated times.

[2] = ATPase time-course (burst kinetics); assay type: biochemical
Experimental: (§3) The ATPase activity was determined, as previously described, by directly monitoring [γ-^32P] ATP hydrolysis by thin-layer chromatography (TLC). ATP (3000 Ci/mmol) as tracer, plus 1 mM of cold ATP, unless otherwise stated, and nucleic acids as indicated. Samples were incubated for 5 minutes at 25°C and dotted onto TLC sheets of polyethylenimine cellulose. The products were separated by ascending chromatography with 0.5 M KH2PO4 (pH 3.4). The intensities of the radioactive bands corresponding to ATP and Pi were quantified by densitometric scanning with PhosphoImager. For the stimulation of the ATPase activity, the ssDNA oligonucleotide oligo(dT)20 or the ssRNA oligonucleotide oligo (rU)20 were used. Time-course experiments were performed under the conditions described above. Samples were taken at different time points and processed as described above.
Variation of the ATPase reaction as a function of time was fitted to the mixed-exponential equation: [drawing 3] (3) where [P] is the concentration of products (pmols) at any given time point, t is time, Aburst is the burst amplitude, k burst is the rate of the exponential phase, k ss is the rate of the steady-state linear phase.

[3] = system: 18/36mer ds RNA oligonucleotide; test: RNA helicase assay; assay type: biochemical
Excerpt: as §1, §2
Variation of the amount of unwound RNA substrate as a function of time was fitted to a simple exponential equation: [drawing 4] (4) where MAX is the amount of unwound substrate extrapolated at infinite time, kuw is the apparent rate of unwinding.

[4] = ATPase activity assay ([γ-32P]ATP hydrolysis, TLC), steady-state kinetics; assay type: biochemical
Experimental: as §3
ATPase reactions were performed as described, in the presence of increasing amounts of nucleic acids and variable ATP concentrations. […] The relative -fold increase in the ATPase velocities 1−(vDNA/v) as a function of the nucleic acid concentrations was fitted to the hyperbolic relationship: [drawing 2] (2) where vNA is the apparent velocity of the reaction in the presence of nucleic acid, v is the velocity in its absence, KD is the apparent affinity for the nucleic acid and [NA] is the concentration of the nucleic acid substrate. The symbol KD is used, instead of Km, solely to reflect the fact that the NA is not a reactant (i.e. it is not converted into products) but only a cofactor of the reaction, without implying any assumption on the nature of the microscopic rates contributing to the KD value itself.

N-DDX3 = target: T1, N-DDX3 (Homo sapiens, UniProt O00571); test: Inhibition of N-DDX3 ATPase activity; assay type: biochemical; details: increasing amounts of inhibitor
T1 construct: The N-DDX3 mutant (aa 1–427) was obtained using the forward primer; N-terminal peptide of ~3 kDa comprising 6xHis (pTrcHisA) (N); seven additional amino acids KQGCFGG (C); made in house; host or cells: E. coli BL-21
Experimental: as §3

DDX3wt = target: T2, DDX3wt (Homo sapiens, UniProt O00571); test: Inhibition of DDX3wt ATPase activity; assay type: biochemical; details: increasing amounts of inhibitor
T2 construct: DDX3wt (aa 1–662), and the N-DDX3 (aa 1–427); N-terminal peptide of ~3 kDa comprising 6xHis (pTrcHisA) (N); seven additional amino acids KQGCFGG (C); made in house; host or cells: E. coli BL-21
Experimental: as §3

[5] = relative to absence of nucleic acid

T2 sequence (O00571 whole entry, the tested form may be a part): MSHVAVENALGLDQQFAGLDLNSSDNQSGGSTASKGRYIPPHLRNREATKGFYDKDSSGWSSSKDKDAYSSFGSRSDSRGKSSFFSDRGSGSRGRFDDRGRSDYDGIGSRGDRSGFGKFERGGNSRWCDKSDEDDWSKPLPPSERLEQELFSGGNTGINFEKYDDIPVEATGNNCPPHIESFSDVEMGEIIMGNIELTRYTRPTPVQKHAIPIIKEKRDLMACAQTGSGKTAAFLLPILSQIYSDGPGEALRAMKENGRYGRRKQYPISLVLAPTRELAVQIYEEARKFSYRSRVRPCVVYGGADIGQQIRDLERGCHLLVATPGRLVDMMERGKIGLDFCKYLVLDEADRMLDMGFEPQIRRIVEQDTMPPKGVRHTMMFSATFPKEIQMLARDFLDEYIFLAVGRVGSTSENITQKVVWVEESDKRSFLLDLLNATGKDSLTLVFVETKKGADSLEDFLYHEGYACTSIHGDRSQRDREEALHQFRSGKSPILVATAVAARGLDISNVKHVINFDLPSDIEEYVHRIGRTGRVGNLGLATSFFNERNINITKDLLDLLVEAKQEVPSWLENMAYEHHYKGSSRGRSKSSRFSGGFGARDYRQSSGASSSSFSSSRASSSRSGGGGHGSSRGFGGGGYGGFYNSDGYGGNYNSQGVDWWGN
T1 sequence (O00571 1-427): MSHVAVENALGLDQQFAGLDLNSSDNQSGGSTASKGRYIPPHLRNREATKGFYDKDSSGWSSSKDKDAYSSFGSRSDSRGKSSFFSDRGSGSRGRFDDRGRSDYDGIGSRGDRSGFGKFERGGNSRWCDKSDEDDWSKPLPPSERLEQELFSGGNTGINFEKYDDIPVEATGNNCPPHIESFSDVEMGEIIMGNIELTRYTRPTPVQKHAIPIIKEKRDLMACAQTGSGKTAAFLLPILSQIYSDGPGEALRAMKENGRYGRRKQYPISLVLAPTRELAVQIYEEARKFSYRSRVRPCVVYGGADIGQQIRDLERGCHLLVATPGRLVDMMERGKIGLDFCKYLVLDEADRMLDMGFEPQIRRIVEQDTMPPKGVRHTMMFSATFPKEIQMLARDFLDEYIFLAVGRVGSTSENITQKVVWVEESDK

Compound: SDVPTQVGGRRRRRRRRR [DDX3-INS1]
- Toxicity for the cells (HelaP4 cells): not toxic

Compound: DDX3wt: recombinant full length human DDX3 (aa 1–662), N-terminal his-tagged, expressed in E. coli
- DNA unwinding ([1]; DNA duplex with a single 5′-protruding end, 18/[5′]-38 mer): able to unwind
- DNA unwinding ([1]; DNA duplex with both 5′- and 3′-protruding ssDNA ends, 18/[5′-3′]-38 mer): able to unwind
- DNA unwinding ([1]; substrate with a 3′-ss DNA region, 18/[3′]-38 mer): not
- Aburst ([2]; +DNA, oligo(dT)20): 0.9 ± 0.1 µM
- k burst ([2]; +DNA, oligo(dT)20): 9.5 ± 0.8 min⁻¹
- k ss ([2]; +DNA, oligo(dT)20): 0.4 ± 0.03 min⁻¹
- Aburst ([2]; +RNA, oligo(rU)20): 0.75 ± 0.1 µM
- k burst ([2]; +RNA, oligo(rU)20): 7 ± 0.8 min⁻¹
- k ss ([2]; +RNA, oligo(rU)20): 0.4 ± 0.09 min⁻¹
- Aburst ([2]; absence of nucleic acids): 0.25 ± 0.05 µM
- k burst ([2]; absence of nucleic acids): 4.1 ± 0.7 min⁻¹
- k ss ([2]; absence of nucleic acids): 0.3 ± 0.08 min⁻¹
- Reduction of RNA unwinding rate by addition of the trap [3]: about 2 fold
- k uw (apparent rate of RNA unwinding) ([3]; +trap, 50-fold molar excess r(A)40 ssRNA, single-turnover): 0.05 ± 0.01 min⁻¹
- k uw (apparent rate of RNA unwinding) ([3]; without trap): 0.11 ± 0.02 min⁻¹
- k cat ([4]; +DNA, oligo(dT)20): 0.0633 ± 0.0033 s⁻¹
- k cat ([4]; +RNA, oligo(rU)20): 0.0533 ± 0.0017 s⁻¹
- Intrinsic ability to hydrolyze ATP ([4]; absence of nucleic acid): detectable ATPase activity
- k cat ([4]; absence of nucleic acids): 0.0267 ± 0.0033 s⁻¹
- Increase of catalytic efficiency (kcat/Km) by DNA [4, 5]: 3.2 fold
- Increase of catalytic efficiency (kcat/Km) by RNA [4, 5]: 2.8 fold

Compound: O=C(CN1C(=O)/C(=C/c2cccc(Br)c2)SC1=S)Nc1ccccc1O [FE15]
- Inhibition of ATP hydrolysis (N-DDX3): inhibited
- Inhibition of ATP hydrolysis (DDX3wt): inhibited
